Broadly, the inhibition is the share of the control response that was lost under treatment.

The nature of data set [1]: Inhibition of PKC at 0.2 mM after 90 mins by ELISA. (In general: An ELISA detects its analyte on a solid surface through an enzyme-linked reagent.)
Data set [2] can be described thus: Inhibition of PKC at 0.1 mM after 90 mins by ELISA.
Data set [3] in a line: Inhibition of PKC at 0.025 to 0.05 mM after 90 mins by ELISA.
Data set [4] in a line: Inhibition of PKC at 0.025 mM after 90 mins by ELISA.
For a further data set, the system named is Rattus norvegicus. Nature of the data set: Toxicity in rat at 4 mg/kg, po after 28 days. It counts as organism-based. Details: dose 4 mg/kg, route oral. Conditions: in vivo, 672 h.
The test system of the next data set is Mus musculus. Nature of the data set: Toxicity in mouse at 8 mg/kg, po after 28 days. Format: organism-based. Details: dose 8 mg/kg, route oral. Particulars: in vivo, 672 h.
Data set [5] in a line: Inhibition of PKC after 90 mins by ELISA.

SMILES strings stand for the structures. Calls of active or inactive are those of the source. The rule behind the calls is not given here.

With `CC/C(=C(\c1ccccc1)c1ccc(OCCN(C)C)cc1)c1ccccc1`, the inhibition in data set [1] worked out at 25%; in data set [2] it was 14%. Besides, the inhibition result in data set [3] is “inactive”.

Consider `CC/C(=C(\c1ccc(O)cc1)c1ccc(OCCNC)cc1)c1ccccc1` [ENDOXIFEN], for which the inhibition in data set [4] was 12%; in data set [1] it was 78%; in data set [5], “Dose-dependent effect”. For the same compound, the Activity entry in the data set with Rattus norvegicus and with Mus musculus was “Non-toxic” throughout.

These data come from ChEMBL document CHEMBL1156970, “Endoxifen is a new potent inhibitor of PKC: a potential therapeutic agent for bipolar disorder” (Bioorg Med Chem Lett, 2010).
